Results from ChEMBL document CHEMBL1201862, “PubChem BioAssay data set” (2004).
Activity calls are given as the source filed them.

Experiments:
[1] = molecular target: T1, Replicative DNA helicase DnaB (Mycobacterium tuberculosis, UniProt P9WMR3); experiment: DnaB intein splicing inhibitors, dose response, biochemical, cell-free fluorescence (AID 449749); format: functional
T1 sequence (P9WMR3 whole entry): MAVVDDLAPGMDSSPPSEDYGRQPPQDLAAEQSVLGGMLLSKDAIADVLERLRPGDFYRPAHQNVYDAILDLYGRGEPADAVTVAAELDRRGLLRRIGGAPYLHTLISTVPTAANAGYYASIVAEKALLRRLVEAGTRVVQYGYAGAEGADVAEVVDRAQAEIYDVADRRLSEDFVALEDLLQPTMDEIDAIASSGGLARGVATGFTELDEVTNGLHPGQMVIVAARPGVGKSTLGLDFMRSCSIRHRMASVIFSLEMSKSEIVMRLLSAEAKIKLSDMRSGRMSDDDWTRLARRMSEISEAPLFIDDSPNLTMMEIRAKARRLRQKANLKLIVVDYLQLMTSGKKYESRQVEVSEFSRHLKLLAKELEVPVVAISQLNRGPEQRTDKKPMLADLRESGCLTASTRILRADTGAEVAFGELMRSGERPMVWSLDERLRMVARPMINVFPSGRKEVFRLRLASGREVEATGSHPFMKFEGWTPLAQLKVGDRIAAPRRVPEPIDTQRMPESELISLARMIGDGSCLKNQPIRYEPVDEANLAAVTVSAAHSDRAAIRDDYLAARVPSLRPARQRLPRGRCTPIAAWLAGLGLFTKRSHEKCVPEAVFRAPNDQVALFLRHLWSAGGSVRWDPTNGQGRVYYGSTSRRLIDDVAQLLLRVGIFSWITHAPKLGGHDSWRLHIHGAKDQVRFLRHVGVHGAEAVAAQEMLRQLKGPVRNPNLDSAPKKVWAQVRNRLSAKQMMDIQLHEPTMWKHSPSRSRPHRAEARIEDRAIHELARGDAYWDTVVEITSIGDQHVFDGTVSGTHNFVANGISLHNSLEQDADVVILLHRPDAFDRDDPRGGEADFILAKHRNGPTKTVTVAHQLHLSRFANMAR

Protein RecA = molecular target: T2, Protein RecA (Mycobacterium tuberculosis, UniProt P9WHJ3); experiment: Fluorescence Cell-Free Homogeneous Dose Retest to Identify Inhibitors of RecA-Intein Splicing Activity. [Related pubchem assays (depositor defined):AID2097, AID2223, AID489010, AID492950]; format: functional
T2 sequence (P9WHJ3 whole entry): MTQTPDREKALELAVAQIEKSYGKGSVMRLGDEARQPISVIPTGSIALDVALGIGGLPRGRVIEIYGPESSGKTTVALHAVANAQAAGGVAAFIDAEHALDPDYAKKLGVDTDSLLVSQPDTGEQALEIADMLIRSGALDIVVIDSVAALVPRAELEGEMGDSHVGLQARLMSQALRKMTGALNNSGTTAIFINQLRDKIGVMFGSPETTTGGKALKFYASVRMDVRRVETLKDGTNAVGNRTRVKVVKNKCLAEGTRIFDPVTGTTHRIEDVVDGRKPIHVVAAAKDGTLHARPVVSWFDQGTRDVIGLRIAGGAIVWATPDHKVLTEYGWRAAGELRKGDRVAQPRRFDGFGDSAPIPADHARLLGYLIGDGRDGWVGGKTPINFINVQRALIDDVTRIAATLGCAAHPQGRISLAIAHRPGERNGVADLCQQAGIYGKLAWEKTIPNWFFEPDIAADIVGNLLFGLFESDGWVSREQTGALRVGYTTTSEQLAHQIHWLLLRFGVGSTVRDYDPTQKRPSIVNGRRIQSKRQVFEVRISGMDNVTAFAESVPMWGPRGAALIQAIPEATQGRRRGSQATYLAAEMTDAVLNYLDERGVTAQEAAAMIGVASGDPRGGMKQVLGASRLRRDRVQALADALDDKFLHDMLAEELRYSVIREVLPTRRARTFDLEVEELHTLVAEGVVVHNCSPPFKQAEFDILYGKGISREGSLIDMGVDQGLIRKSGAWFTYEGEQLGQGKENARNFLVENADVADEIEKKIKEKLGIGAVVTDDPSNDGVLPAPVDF

[2] = molecular target: T3, Apoptotic protease-activating factor 1 (Homo sapiens, UniProt O14727); format: functional;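 for EC50 Mean: caspase-3 cleavage of fluorogenic Rh110 DEVD substrate downstream of apoptosome activation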
T3 sequence (O14727 whole entry): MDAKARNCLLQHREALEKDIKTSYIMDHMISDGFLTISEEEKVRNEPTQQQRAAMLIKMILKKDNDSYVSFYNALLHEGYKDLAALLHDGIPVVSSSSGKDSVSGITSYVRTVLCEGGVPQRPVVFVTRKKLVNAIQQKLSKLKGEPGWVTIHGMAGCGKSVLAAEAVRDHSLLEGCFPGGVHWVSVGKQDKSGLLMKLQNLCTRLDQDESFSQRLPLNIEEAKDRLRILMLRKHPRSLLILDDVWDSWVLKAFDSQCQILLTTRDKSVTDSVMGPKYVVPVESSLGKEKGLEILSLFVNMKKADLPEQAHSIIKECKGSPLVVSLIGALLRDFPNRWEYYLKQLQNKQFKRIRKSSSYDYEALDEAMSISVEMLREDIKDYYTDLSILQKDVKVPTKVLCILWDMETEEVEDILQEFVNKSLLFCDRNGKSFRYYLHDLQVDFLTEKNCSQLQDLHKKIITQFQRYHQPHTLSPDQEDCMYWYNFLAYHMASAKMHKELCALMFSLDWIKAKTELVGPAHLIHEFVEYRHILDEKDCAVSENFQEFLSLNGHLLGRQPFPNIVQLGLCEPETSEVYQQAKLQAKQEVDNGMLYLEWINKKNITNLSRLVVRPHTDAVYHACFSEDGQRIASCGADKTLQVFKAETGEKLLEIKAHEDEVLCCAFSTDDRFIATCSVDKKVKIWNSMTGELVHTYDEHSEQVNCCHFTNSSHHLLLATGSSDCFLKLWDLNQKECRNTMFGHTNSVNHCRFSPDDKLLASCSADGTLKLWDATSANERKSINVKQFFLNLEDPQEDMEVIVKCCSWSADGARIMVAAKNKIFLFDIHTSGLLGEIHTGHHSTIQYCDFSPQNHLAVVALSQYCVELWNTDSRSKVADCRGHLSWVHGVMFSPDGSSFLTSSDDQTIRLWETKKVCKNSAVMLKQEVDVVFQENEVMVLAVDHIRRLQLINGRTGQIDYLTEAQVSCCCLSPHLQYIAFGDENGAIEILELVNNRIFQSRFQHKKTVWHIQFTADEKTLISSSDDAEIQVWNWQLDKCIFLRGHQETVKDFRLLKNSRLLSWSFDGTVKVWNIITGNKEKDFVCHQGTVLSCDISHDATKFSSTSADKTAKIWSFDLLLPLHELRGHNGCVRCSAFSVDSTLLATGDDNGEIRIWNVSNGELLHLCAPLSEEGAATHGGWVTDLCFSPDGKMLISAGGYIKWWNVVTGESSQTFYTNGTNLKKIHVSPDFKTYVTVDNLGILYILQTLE

Cytochrome P450 3A4 = Cytochrome P450 3A4 (Homo sapiens, UniProt P08684); settings: Potency;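 note: confirmatory qHTS run detecting inhibitors and substrates of CYP3A4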
Chain of Cytochrome P450 3A4 (P08684 whole entry): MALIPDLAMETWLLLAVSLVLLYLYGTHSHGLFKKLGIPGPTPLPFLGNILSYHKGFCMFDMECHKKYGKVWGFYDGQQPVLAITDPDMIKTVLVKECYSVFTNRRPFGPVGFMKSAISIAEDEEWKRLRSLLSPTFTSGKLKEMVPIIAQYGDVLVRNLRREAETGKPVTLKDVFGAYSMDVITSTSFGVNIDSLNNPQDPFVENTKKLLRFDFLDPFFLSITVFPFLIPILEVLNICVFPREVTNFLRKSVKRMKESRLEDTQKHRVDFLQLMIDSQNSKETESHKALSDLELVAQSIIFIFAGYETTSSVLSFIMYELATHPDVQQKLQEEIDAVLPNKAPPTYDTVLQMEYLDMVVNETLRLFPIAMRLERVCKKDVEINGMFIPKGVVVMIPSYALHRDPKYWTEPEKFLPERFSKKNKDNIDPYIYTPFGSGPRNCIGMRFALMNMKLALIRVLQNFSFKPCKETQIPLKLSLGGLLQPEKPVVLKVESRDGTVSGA

[3] = molecular target: T4, Aryl hydrocarbon receptor (Homo sapiens, UniProt P35869); settings: Potency;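 note: confirmatory quantitative high-throughput screen measuring activation of the AhR signaling pathway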
T4 sequence (P35869 whole entry): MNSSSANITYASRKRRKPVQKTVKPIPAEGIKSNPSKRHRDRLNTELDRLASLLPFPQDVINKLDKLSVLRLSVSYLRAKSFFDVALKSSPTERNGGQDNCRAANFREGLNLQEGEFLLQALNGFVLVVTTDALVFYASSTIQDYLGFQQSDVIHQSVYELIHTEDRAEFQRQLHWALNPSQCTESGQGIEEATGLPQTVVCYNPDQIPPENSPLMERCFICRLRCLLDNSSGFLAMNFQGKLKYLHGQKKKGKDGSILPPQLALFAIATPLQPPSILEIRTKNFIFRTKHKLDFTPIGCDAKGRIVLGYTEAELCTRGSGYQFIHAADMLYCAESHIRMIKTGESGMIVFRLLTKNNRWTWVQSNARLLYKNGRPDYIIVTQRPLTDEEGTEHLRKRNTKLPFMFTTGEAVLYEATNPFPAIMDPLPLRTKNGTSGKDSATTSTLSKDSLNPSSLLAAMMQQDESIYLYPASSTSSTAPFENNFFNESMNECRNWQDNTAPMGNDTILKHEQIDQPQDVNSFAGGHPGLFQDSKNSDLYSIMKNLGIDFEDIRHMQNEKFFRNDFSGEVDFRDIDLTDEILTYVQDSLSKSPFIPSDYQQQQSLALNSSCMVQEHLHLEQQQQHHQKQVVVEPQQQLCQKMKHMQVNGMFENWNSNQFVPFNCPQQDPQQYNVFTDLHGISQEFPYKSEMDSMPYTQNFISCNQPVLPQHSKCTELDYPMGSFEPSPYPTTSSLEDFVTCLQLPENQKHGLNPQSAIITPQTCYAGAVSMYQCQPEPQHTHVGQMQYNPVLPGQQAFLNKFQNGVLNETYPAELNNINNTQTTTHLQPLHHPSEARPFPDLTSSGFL

[4] = molecular target: T5, Oxysterols receptor LXR-beta (Homo sapiens, UniProt P55055); format: functional, cell-based;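 note: Cell-based luminescence dose-response assay of agonist activity at LXR, run as a confirmatory counterscreen to a daf-12 agonist screen; HEK293 cells with Gal4-LXR fusion and GAL4-driven luciferase reporter; agonist potency from rising luciferase signal of a Gal4-LXR reporter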
T5 sequence (P55055 whole entry): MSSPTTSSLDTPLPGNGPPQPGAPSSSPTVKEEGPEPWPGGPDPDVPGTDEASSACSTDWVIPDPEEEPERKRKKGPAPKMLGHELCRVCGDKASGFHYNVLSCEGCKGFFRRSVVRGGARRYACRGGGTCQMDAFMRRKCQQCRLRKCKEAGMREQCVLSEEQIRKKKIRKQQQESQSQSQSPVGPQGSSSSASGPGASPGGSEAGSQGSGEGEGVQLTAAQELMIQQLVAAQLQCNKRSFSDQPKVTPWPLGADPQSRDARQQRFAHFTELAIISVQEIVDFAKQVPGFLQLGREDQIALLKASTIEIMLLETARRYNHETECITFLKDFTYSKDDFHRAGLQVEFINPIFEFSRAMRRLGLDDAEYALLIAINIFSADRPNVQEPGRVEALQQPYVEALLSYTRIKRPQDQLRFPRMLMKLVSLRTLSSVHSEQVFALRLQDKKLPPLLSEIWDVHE

[5] = molecular target: Ras and Rab interactor 1/Tyrosine-protein kinase ABL1 (Homo sapiens, UniProt P00519+Q13671); format: functional;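 note: biochemical TR-FRET dose-response test measuring inhibition of binding between Rin1 and Abl proteins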
Chain of Ras and Rab interactor 1/Tyrosine-protein kinase ABL1 (P00519 whole entry): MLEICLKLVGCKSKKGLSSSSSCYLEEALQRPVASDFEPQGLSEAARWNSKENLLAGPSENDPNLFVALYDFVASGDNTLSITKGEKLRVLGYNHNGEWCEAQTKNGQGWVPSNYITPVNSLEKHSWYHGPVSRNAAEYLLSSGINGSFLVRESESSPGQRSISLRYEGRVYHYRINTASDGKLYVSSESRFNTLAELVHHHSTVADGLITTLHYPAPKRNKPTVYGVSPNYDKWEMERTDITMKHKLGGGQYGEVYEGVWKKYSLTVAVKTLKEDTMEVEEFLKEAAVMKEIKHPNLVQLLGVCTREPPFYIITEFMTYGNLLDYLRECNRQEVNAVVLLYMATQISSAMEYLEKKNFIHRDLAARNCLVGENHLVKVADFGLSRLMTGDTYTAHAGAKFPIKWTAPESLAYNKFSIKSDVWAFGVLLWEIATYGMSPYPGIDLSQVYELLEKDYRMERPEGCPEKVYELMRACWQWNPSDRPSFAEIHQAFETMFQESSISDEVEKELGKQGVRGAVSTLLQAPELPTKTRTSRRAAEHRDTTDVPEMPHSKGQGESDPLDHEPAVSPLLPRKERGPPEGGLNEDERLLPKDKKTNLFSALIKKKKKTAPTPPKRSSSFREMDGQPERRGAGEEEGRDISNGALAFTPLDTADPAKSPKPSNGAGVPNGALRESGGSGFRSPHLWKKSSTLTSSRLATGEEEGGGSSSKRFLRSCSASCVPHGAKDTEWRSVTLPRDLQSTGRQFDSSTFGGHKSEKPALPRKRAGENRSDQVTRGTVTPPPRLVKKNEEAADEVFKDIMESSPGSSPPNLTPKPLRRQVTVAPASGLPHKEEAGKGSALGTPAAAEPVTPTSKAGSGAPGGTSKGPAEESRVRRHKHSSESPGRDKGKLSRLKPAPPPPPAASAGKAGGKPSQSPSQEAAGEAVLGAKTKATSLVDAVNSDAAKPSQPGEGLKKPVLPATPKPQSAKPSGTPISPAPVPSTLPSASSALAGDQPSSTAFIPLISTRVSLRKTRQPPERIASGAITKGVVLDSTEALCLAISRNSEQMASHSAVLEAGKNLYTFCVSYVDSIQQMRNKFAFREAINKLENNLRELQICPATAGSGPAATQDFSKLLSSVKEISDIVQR
Chain of Ras and Rab interactor 1/Tyrosine-protein kinase ABL1 (Q13671 whole entry): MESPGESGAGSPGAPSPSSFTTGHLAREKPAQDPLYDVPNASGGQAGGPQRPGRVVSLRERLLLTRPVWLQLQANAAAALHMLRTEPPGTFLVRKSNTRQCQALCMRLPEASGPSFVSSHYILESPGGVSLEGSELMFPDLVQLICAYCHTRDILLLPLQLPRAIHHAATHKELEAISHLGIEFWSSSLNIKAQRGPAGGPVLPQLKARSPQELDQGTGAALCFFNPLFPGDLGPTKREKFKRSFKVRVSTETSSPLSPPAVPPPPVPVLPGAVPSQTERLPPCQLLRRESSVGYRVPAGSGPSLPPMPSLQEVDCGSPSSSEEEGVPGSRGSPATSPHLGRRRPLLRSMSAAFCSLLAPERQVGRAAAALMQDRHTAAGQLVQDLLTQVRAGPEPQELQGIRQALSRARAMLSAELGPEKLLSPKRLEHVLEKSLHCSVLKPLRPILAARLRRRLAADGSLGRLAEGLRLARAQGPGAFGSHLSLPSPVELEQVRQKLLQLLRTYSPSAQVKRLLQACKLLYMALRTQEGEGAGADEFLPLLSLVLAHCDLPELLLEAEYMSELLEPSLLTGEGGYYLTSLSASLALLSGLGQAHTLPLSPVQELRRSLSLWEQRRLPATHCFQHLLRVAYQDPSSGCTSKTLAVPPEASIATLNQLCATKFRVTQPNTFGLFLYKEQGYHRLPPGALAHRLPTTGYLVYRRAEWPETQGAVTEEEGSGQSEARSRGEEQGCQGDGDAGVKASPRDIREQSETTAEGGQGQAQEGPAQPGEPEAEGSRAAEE

[6] = molecular target: Protein disulfide-isomerase (Homo sapiens, UniProt P07237); experiment: inhibition of PDI-driven insulin aggregation – biochemical, turbidity, absorbance, cherry-picked samples, dose response (AID 602350); format: functional
Chain of Protein disulfide-isomerase (P07237 whole entry): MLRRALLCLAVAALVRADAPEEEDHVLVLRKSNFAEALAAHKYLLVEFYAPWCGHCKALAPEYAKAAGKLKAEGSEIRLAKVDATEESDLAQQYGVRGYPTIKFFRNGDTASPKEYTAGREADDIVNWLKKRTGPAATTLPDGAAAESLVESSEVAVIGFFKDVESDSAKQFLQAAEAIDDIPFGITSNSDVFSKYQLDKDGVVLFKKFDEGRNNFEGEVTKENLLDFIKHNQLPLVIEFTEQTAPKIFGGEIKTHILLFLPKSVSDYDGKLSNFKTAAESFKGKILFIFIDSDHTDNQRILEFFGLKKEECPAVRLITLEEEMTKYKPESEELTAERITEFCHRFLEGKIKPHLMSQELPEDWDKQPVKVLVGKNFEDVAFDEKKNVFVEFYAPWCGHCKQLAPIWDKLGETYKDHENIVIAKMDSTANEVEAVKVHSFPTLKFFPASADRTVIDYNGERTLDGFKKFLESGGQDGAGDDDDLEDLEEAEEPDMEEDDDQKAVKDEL

[7] = molecular target: Dual specificity tyrosine-phosphorylation-regulated kinase 1A (Rattus norvegicus, UniProt Q63470); format: biochemical, Homo sapiens
[8] = molecular target: T6, Low molecular weight phosphotyrosine protein phosphatase (Homo sapiens, UniProt P24666); format: functional; settings: read-out: IC50_Mean;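 note: Dose-response confirmation assay measuring inhibition of LMPTP enzyme activity by fluorescence intensity read-out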
T6 sequence (P24666 whole entry): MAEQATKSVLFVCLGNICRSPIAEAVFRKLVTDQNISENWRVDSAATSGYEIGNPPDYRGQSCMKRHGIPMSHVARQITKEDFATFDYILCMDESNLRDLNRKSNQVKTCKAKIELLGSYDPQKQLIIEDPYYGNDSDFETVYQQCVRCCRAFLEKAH

[9] = molecular target: Dual specificity protein phosphatase 3 (Homo sapiens, UniProt P51452); experiment: VHR phosphatase inhibition, dose response, selectivity assay for STEP inhibitor project, biochemical (AID 602374); format: functional; settings: read-out: IC50_Mean
Chain of Dual specificity protein phosphatase 3 (P51452 whole entry): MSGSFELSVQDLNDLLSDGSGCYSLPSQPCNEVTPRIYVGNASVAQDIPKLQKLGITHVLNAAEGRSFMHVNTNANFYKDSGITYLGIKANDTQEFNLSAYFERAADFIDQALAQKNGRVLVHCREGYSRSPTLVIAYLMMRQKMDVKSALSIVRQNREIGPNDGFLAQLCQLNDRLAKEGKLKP

[10] = molecular target: Tyrosine-protein phosphatase non-receptor type 5 (Homo sapiens, UniProt P54829); experiment: PTPN5 enzyme inhibition – biochemical, fluorescence intensity, uHTS hits, confirmation (AID 602372); format: functional; settings: read-out: IC50_Mean
Chain of Tyrosine-protein phosphatase non-receptor type 5 (P54829 whole entry): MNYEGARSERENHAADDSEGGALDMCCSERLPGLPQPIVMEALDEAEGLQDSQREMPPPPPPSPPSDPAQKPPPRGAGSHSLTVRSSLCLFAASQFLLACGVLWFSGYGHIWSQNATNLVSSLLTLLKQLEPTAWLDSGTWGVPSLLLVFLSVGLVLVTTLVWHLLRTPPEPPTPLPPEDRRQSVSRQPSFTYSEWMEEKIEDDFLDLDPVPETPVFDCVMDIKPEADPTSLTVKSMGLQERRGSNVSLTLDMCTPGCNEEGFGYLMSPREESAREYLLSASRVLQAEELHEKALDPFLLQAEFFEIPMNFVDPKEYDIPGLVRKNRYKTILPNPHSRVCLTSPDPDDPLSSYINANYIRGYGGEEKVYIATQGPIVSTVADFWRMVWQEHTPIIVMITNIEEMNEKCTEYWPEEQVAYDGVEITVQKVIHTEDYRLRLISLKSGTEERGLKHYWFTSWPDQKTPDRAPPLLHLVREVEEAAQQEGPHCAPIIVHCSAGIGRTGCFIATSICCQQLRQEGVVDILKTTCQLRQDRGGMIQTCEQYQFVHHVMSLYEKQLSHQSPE

[11] = molecular target: Tyrosine-protein phosphatase non-receptor type 11 (Homo sapiens, UniProt Q06124); experiment: PTPN11 enzyme inhibitors – biochemical, selectivity assay for STEP inhibitor project, dose response (AID 602367); format: functional; settings: read-out: IC50_Mean
Chain of Tyrosine-protein phosphatase non-receptor type 11 (Q06124 whole entry): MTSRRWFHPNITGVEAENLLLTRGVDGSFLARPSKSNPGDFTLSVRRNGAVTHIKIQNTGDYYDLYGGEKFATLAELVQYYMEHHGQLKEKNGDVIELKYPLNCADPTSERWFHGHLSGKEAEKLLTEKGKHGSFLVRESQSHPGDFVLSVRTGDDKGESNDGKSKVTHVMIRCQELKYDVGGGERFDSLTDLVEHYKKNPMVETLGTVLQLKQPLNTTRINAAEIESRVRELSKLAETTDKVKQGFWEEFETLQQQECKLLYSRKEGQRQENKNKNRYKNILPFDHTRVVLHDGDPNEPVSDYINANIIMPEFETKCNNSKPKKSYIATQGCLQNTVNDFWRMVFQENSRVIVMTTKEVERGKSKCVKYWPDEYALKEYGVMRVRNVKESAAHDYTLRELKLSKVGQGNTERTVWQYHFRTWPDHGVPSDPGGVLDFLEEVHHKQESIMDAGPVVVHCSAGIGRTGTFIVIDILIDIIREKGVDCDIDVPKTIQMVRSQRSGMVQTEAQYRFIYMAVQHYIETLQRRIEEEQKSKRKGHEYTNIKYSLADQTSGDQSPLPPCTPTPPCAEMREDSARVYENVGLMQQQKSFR

[12] = molecular target: T3, Apoptotic protease-activating factor 1; experiment: SAR analysis of small molecule Activators of Apaf-1 in a Fluorescent assay.; format: functional; settings: read-out: EC50_Mean

In the case of `CCCc1n[nH]c2c1C(c1ccc(OC)c(CSC3=NCCS3)c1)C(C#N)=C(N)O2` (stereo unspecified), the AC50 [1] is reported as 2.99 µM (active), the EC50 (Protein RecA) is reported as 4.56 µM (active) and the IC50 [2] is reported as 23.9 µM (active).
In the case of `Nc1ccc(Cl)c(Cl)c1`, the AC50 (Cytochrome P450 3A4) is reported as 25.1 µM (inconclusive) and the AC50 [3] is reported as 56.2 µM (inconclusive).
With `O=[N+]([O-])c1ccccc1-c1ccc(C(=S)N2CCCC2)o1` the EC50 [4] was > 67.5 µM (inactive), the IC50 [2] was 49.8 µM (active) and the EC50 (cells) was > 67.5 µM (inactive).
In the case of `CC(C)OC(=O)Cc1ccccc1`, the AC50 [3] is reported as 35.5 µM (inconclusive).
In the case of `COc1ccccc1CNC(=O)CSc1nnc2ccc(-c3cccnc3)nn12`, the IC50 [5] is reported as > 73.5 µM (inactive).
In the case of `C[C@@H]1O[C@@H](O[C@H]2[C@H](O)[C@@H](O)[C@H](Oc3c(-c4ccc(O)cc4)oc4cc(O)cc(O)c4c3=O)O[C@@H]2CO)[C@H](O)[C@H](O)[C@H]1O`, the AC50 [6] is reported as 6.92 µM (active).
In the case of `C[C@@H]1O[C@@H](OC[C@H]2O[C@@H](Oc3c(-c4ccc(O)c(O)c4)oc4cc(O)cc(O)c4c3=O)[C@H](O)[C@@H](O)[C@@H]2O)[C@H](O)[C@H](O)[C@H]1O`, the AC50 [6] is reported as 7.62 µM (active), the AC50 [7] is reported as 4.08 µM (active) and the IC50 [5] is reported as > 73.5 µM (inactive).
In the case of `Cc1ccc(S(=O)(=O)N2CCCCC2)cc1NC(=O)c1ccc(=O)[nH]c1`, the IC50 [8] is reported as 37.1 µM (inactive), the IC50 [9] is reported as 3.08 µM (active) and the IC50 [10] is reported as 29.6 µM (inactive). For the same compound, the IC50 [11] was 4.88 µM (active).
For `CN1CCC(Oc2ccccc2N2CC(C(=O)O)CC2=O)CC1` (stereo unspecified), the EC50 [12] was > 100 µM (inactive).
With `O=C(Nc1ccc(F)cc1F)C1CC(c2ccc(F)cc2)=NO1` (stereo unspecified) the EC50 [12] was > 100 µM (inactive).
For `O=c1c(O[C@@H]2O[C@H](CO)[C@@H](O)[C@H](O)[C@H]2O)c(-c2ccc(O)cc2)oc2cc(O)cc(O)c12` [ASTRAGALIN], the AC50 [6] was 19 µM (active).
